These results are taken from patent publication US20090209573A1, “COMPOUNDS AND COMPOSITIONS AS HEDGEHOG PATHWAY MODULATORS” (IRM LLC, priority 2004, published 2009).

What all share (assay type): cell-based
Data set [1] deals with Daoy cells (medulloblastoma cell line). Description: Cyto-toxicity Assay (Cell Titer-Glo cell viability), Daoy cells. Particulars: Homo sapiens, 48 h, 2 days, luminescent cell viability, read-out: EC50 against the proliferation of Daoy cells. How it is done: (§1) A cytotoxicity assay is performed to compare the effects of a compound of the invention on medulloblastoma cells (Daoy cells), basal cell carcinoma cells (TE354.T cells) and control cells (human normal fibroblast) according to the following procedure:
Daoy cells (medulloblastoma cell line) are purchased from ATCC, and cultured in Minimum essential medium (Eagle) with 2 mM L-glutamine and Earle's BSS adjusted to contain 1.5 g/L sodium bicarbonate, 0.1 mM non-essential amino acids, and 1.0 mM sodium pyruvate and 10% FBS at 37° C. with 5% CO2 in an air atmosphere.
(§2) Each of the above cell lines are independently seeded into 96-well plates and cultured to a density of 5,000-10,000 cells/well. A compound of the invention, at different concentrations, is added into the cell cultures. After 2 days, the cell viability is evaluated with Cell Titer-Glo Luminescent Cell Viability Assay Kit (Promega) following the manufacturer's protocol. The cell viability is directly measured by luminescent signaling and EC50s are measured when the signal is inhibited 50%.
On the technique in general: In ATP-based viability assays light output follows the ATP content of the culture.

The subject of data set [2] is Shh-mediated pathway activation (Gli-reporter in C3H10T1/2 cells). Description: Gli-Luc Reporter Assay for Hh Pathway Inhibition. Particulars: C3H 10T1/2, recombinant mouse Shh protein 2 μg/mL, 48 hours, firefly luciferase normalized to Renilla, read-out: EC50 to block Shh-mediated pathway activation. How it is done: Gli-Luc Reporter Assay for Hh Pathway Inhibition
Mouse embryonic mesoderm fibroblasts C3H10T1/2 cells (obtained from American Type Culture Collection, ATCC, Manassas, Va.) are cultured in MEM-α medium (Gibco/Invitrogen, Carlsbad, Calif.) supplemented with 10% heat inactivated FBS (Gibco/Invitrogen, Carlsbad, Calif.), 50 unit/mL penicillin and 50 μg/mL of streptomycin (Gibco/Invitrogen, Carlsbad, Calif.) at 37° C. with 5% CO2 in air atmosphere. C3H10T1/2 cells in a 10 cm dish are co-transfected with 8 μg of Gli-reporter plasmid and 2 μg of Renilla luciferase control reporter (Promega, Madison, Wis.) with 30 μL of FuGENE6 (Roche Diagnostics, Indianapolis, Ind.) following the manufacturer's protocol. After 12 hours, cells are trypsinized and replated into a 96-well plate with MEM-α medium supplemented with 2% FBS, and treated with recombinant mouse Shh protein (expressed in E. coli, 2 μg/mL) and different concentrations of a compound of the invention. After 48 hours, the firefly luciferase and Renilla luciferase activities are assayed with the Dual-Glo™ Luciferase Assay System (Promega, Madison, Wis.). Firefly luciferase activity is normalized to Renilla luciferase activity. The EC50 is measured when the effect of the compound reduces the luminescence signal by 50%.
(Reporter assays use an easily measured gene product as a stand-in for the process of interest.)

For data set [3], the system named is normal human dermal fibroblast cells. The data set can be described thus: Cyto-toxicity Assay (Cell Titer-Glo cell viability), control cells. The note with it: 2 days, luminescent cell viability. How it is done:
as §1
Normal human dermal fibroblast cells (Clonetics) are cultured in Fibroblast Growth Medium (Clonetics).
as §2

As for `CCOc1ccc(Nc2nc(-c3c(C)nc4ccccn34)cs2)cc1` [Example 1, (4-Ethoxy-phenyl)-[4-(2-methyl-imidazo[1,2-a]pyridin-3-yl)-thiazol-2-yl]-amine], the EC50 in data set [1] and in data set [2] was 30 nM throughout. In addition, in data set [3], the “toxic effect on normal human dermal fibroblast cells (control)” value was “no toxic effect”.
